# Assay results reported in patent US20020018778A1, “Passive desensitization” (priority 1999, published 2002).
# Test system: serum IgE from patients with documented peanut hypersensitivity
# Assay: IgE immunoblot mapping of human IgE binding epitopes on synthesized peanut antigen peptides
# Conditions: Ara h 3 epitope; 10 patients tested
# Protocol: (§1) IGE IMMUNOBLOT ANALYSIS: Membranes to be blotted were prepared either by SDS-PAGE (performed by the method of Laemmli Nature 227:680-685, 1970; incorporated herein by reference) of digested peanut antigen or by synthesis of antigen peptides on a derivativized cellulose membrane. SDS-PAGE gels were composed of 10% acrylamide resolving gel and 4% acrylamide stacking gel. Electrophoretic transfer and immunoblotting on nitrocellulose paper was performed by the procedures of Towbin (Proc. Natl. Acad. Sci. USA 76:4350-4354, 1979; incorporated herein by reference).
# […] […] At least 5 ml of venous blood was drawn from each patient and allowed to clot, and the serum was collected. All studies were approved by the Human Use Advisory Committee at the University of Arkansas for Medical Sciences. Serum was diluted in a solution containing TBS and 1% bovine serum albumin and incubated with antigen for at least 12 h at 4° C. or for 2 h at room temperature. The bound primary antibody was detected with ^125I-labeled anti-IgE antibody (Sanofi Diagnostics Pasteur Inc., Paris, France).
# PEPTIDE SYNTHESIS: Individual peptides were synthesized on a derivativized cellulose membrane using Fmoc amino acid active esters according to the manufacturer's instructions (Genosys Biotechnologies, Woodlands, Tex.). Fmoc-amino acid derivatives were dissolved in 1-methyl-2-pyrrolidone and loaded on marked spots on the membrane. Coupling reactions were followed by acetylation with a solution of 4% (v/v) acetic anhydride in N,N-dimethyl formamide (DMF). After acetylation, Fmoc groups were removed by incubation of the membrane in 20% (v/v) piperdine in DMF. The membrane was then stained with bromophenol blue to identify the location of the free amino groups. Cycles of coupling, blocking, and deprotection were repeated until the peptides of the desired length were synthesized. After addition of the last amino acid in the peptide, the amino acid side chains were deprotected using a solution of dichloromethane/trifluoroacetic acid/triusobutylsilante (1/10/0.05). Membranes were either probed immediately or stored at −20° C. until needed.
row,patients whose serum IgE recognized the epitope,Sequence
1,10,VTVRGGLRTLSPDRK [Ara h 3 epitope 3]

# Same assay, conditions: human IgE binding epitopes in Ara h 3
row,FRACTION OF PATIENTS WITH IGE THAT BIND,Sequence
1,1 (25%),IETWNPNNQEFECAG [Ara h 3 epitope 1]
2,3 (100%),VTVRGGLRTLSPDRK [Ara h 3 epitope 3]
3,2 (38%),GNIFSGFTPEFLEQA [Ara h 3 epitope 2]
4,4 (38%),DEDEYEYDEEDRRRG [Ara h 3 epitope 4]

# Test system: serum IgE from mice sensitized to recombinant Ara h 2
# Assay: IgE immunoblot mapping of murine IgE binding epitopes in Ara h 2
# Conditions: mouse Ara h 2 epitopes; densitometric analysis of the blot
# Protocol: as §1
# For mapping of murine IgE binding sites, a blot containing overlapping 13 mer peptides, offset by 2 amino acids, was incubated with serum from peanut sensitized mice as described in U.S. patent application Ser. No. 09/455,294, filed Dec. 6, 1999; incorporated herein by reference.
# PEPTIDE SYNTHESIS: Individual peptides were synthesized on a derivativized cellulose membrane using Fmoc amino acid active esters according to the manufacturer's instructions (Genosys Biotechnologies, Woodlands, Tex.). Fmoc-amino acid derivatives were dissolved in 1-methyl-2-pyrrolidone and loaded on marked spots on the membrane. Coupling reactions were followed by acetylation with a solution of 4% (v/v) acetic anhydride in N,N-dimethyl formamide (DMF). After acetylation, Fmoc groups were removed by incubation of the membrane in 20% (v/v) piperdine in DMF. […]
row,Sequence,"contribution to the observed IgE reactivity, single epitope"
1,RCQSQLERA [mouse Ara h 2 epitope (3)],about 15%

# Test system: T cell preparations
# Assay: T cell stimulation by 5/20 native Ara h 2 peptides
# Type: cell-based, human
# Conditions: analysis of 15 patients
# Protocol: Each peptide was tested, using standard techniques, on 19 different T cell preparations. Positive scores, defined as a T cell stimulation index of >2, are indicated by shading.
# Each of these peptides was tested for its ability to stimulate T cells. Each peptide was tested, using standard techniques, on 19 different T cell preparations. Positive scores, defined as a T cell stimulation index of >2, are indicated by shading.
# As discussed herein, it may sometimes be desirable to prepare blocking agent compositions comprising antigen fragments (e.g., IgE binding site and one or more T cell epitopes).
row,Sequence,single IgE site and T cell epitope in the same peptide
1,PCEQHLMQKIQRDEDSYERD [Peptide 9],both a single IgE site and a T cell epitope recognized by at least one person
2,LLAAHASARQQWELQGDRRC [Peptide 3],both a single IgE site and a T cell epitope recognized by at least one person
3,LMQKIQRDEDSYERDPYSPS [Peptide 10],both a single IgE site and a T cell epitope recognized by at least one person
4,ALALFLLAAHASARQQWELQ [Peptide 2],both a single IgE site and a T cell epitope recognized by at least one person
5,LTILVALALFLLAAHASARQ [Peptide 1],both a single IgE site and a T cell epitope recognized by at least one person
6,RANLRPCEQHLMQKIQRDED [Peptide 8],both a single IgE site and a T cell epitope recognized by at least one person
